{"source": "paper PMC5720837", "about": "“Identification of a 4-fluorobenzyl L-valinate amide benzoxaborole (AN11736) as a potential development candidate for the treatment of Animal African Trypanosomiasis (AAT)” (Bioorganic & Medicinal Chemistry Letters, 2018)", "key": {"[1]": {"system": "T. c. parasites (STIB736/IL1180 strain)", "test": "In vivo mouse model of T. congolense infection", "set-up": "species or system NMRI female mice", "conditions": "for Efficacy in mouse model T. c., n/m (mice survived / total mice in group): intraperitoneal, monitored 60 days post treatment", "experimental": "(§1) Selected compounds were screened in both mouse and bovine in vitro metabolic stability assays (mouse S9 and bovine S9), as summarized in Table 2. These two species were chosen because the primary in vivo assays were conducted in mice, and the target animal of this research program is cattle. […] We evaluated the efficacy of selected compounds in two in vivo mouse models of infection, against T. congolense and T. vivax, respectively. Mice were infected with either 1 × 10^5 T. c. parasites or 1 × 10^4 T. v. parasites, and then treated with a test compound via intraperitoneal administration for 1, 2 or 4 consecutive days. The mice were then monitored for the presence of parasitemia for up to 60 days post treatment.[7] We tested in T. c. model first, then followed up with T. v. for interesting compounds. […] We selected compound 5 (AN11736) to progress to exploratory studies to determine the efficacy and safety in a preliminary formulation against induced infections of T. vivax and T. congolense in cattle.[8]\n(§2) [7] Methods for testing compound efficacy in mouse models: In vivo mouse efficacy studies were performed at the Swiss TPH, using established mouse models of infection for T. c. and T. v. NMRI female mice were independently infected either with 1 × 10^5T. c. parasites/mouse (STIB736/IL1180 strain) or 1 × 10^4T. v. parasites/mouse (STIB719/ILRAD560 strain) using an intraperitoneal route. Parasitemia was allowed to develop over 7 days (T. c.) or 3 days (T. v.), respectively, before treatment was administered. Compounds were administered via intraperitoneal injection in 10% DMSO/water. Four mice were used per treatment group. Mice were monitored for the presence of trypanosomes, via tail blood examination microscopically with twice-per-week parasitemia checks for 60 days post treatment. Parasitemia was graded on a scale of 0–3, with 0 indicating no trypanosomes seen in 20 fields of view, 1 indicating the presence of 1–5 trypanosomes per field, 2 indicating the presence of 6–20 trypanosomes per field and 3 indicating greater than 20 trypanosomes per field. Mice scoring 2 or 3 were immediately euthanized. After 60 days, aparasitemic mice were considered cured. Untreated control mice survive on average for 10 and 6 days post infection for T. c. and T. v., respectively. All in vivo mouse experiments were conducted in accordance with the strict guidelines set out by the Swiss Federal Veterinary Office, under the ethical approval of license number #2813."}, "[2]": {"system": "Trypanosoma congolense (T. congolense IL-3000 strain), bloodstream form", "test": "Whole cell Alamar Blue assay, T. congolense (72 h in vitro)", "assay_type": "cell-based", "conditions": "T. congolense IL-3000, 72 h in vitro Alamar Blue assay", "method_in_brief": "(§3)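 T. congolense IL-3000 bloodstream forms were grown axenically in HMI-9 (IMDM) with 20% bovine serum at a starting density of 2 × 10^5 for a 72 h assay. T. vivax STIB719 was taken from infected mouse blood and tested ex vivo for 48 h at 4 × 10^5. Alamar Blue fluorescence (ex 536/em 588 nm) gave IC50s from 11-point curves, at least three independent runs.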"}, "[3]": {"system": "Trypanosoma vivax (T. vivax STIB719/ILRAD 560 strain), bloodstream form", "test": "Whole cell Alamar Blue assay, T. vivax (48 h ex vivo)", "assay_type": "cell-based", "conditions": "Trypanosoma vivax; T. vivax STIB719/ILRAD 560, 48 h ex vivo Alamar Blue assay", "method_in_brief": "as §3"}, "[4]": {"test": "In vitro metabolic stability, bovine S9", "assay_type": "in vitro ADME", "conditions": "S9 fraction", "experimental": "as §1"}, "[5]": {"system": "T. v. parasites (STIB719/ILRAD560 strain)", "test": "In vivo mouse model of T. vivax infection", "set-up": "species or system NMRI female mice", "conditions": "for Efficacy in mouse model T. v., n/m (mice survived / total mice in group): intraperitoneal, monitored 60 days post treatment", "experimental": "as §1, §2"}, "[6]": {"system": "T. congolense", "test": "Efficacy against induced T. congolense infection in cattle", "assay_type": "in vivo", "conditions": "single intramuscular injection of 10 mg/kg, 100 days post treatment", "experimental": "as §1\n(§4) [8] Method for testing compound efficacy in cattle: The cattle studies were conducted in accordance with the method described for cattle by Eisler et al. (2001) in studies conducted in fly-proof facilities and using T. congolense and T. vivax isolates that had previously been confirmed resistant in cattle to diminazine (7 mg/kg live weight) and/or isometamidium (1 mg/kg live weight). […]"}, "[7]": {"system": "T. vivax", "test": "Efficacy against induced T. vivax infection in cattle", "assay_type": "in vivo", "conditions": "single intramuscular injection of 10 mg/kg, 100 days post treatment", "experimental": "as §1, §4"}, "[8]": {"test": "In vitro metabolic stability, mouse S9", "assay_type": "in vitro ADME", "conditions": "S9 fraction", "experimental": "as §1"}}, "note": "Several values for one entry are separate records, joined by “and”; a condition that tells them apart may be missing. Identical values can stand only once."}
{"smiles": "Cc1c(C(=O)N[C@H](C(=O)OCc2ccc(F)cc2)C(C)C)ccc2c1B(O)OC2", "note": "[Compound 5, 4-fluorobenzyl (1-hydroxy-7-methyl-1,3-dihydrobenzo[c][1,2]oxaborole-6-carbonyl)-L-valinate]", "values": [{"measurement": "Efficacy in mouse model T. c., n/m (mice survived / total mice in group)", "setting": "[1]; 1 × 5 mg/kg", "value": "0/4"}, {"measurement": "Efficacy in mouse model T. c., n/m (mice survived / total mice in group)", "setting": "[1]; 1 × 10 mg/kg", "value": "4/4"}, {"measurement": "Efficacy in mouse model T. c., n/m (mice survived / total mice in group)", "setting": "[1]; 2 × 10 mg/kg", "value": "5/5"}, {"measurement": "cure of T. c.-infected mice", "setting": "[1]; single 5 mg/kg dose, IP", "value": "unable to cure"}, {"measurement": "IC50", "setting": "[2]", "value": 0.14, "unit": "nM"}, {"measurement": "IC50", "setting": "[2]; Trypanosoma congolense, 72 h", "value": 0.15, "unit": "nM"}, {"measurement": "IC50", "setting": "[3]", "value": 1.3, "unit": "nM"}, {"measurement": "microsomal CLint", "setting": "[4]", "value": 9.3, "unit": "µL/min/mg"}, {"measurement": "Efficacy in mouse model T. v., n/m (mice survived / total mice in group)", "setting": "[5]; 1 × 10 mg/kg, 10 mg/kg", "value": "5/5 and 4/4"}, {"measurement": "Efficacy in mouse model T. v., n/m (mice survived / total mice in group)", "setting": "[5]; 2 × 10 mg/kg", "value": "5/5"}, {"measurement": "curative efficacy in the T. v.-infected mouse model", "setting": "[5]; single dose of 10 mg/kg, IP", "value": 100, "unit": "%"}, {"measurement": "curative efficacy against T. congolense in cattle", "setting": "[6]", "value": 100, "unit": "%"}, {"measurement": "curative efficacy against T. vivax in cattle", "setting": "[7]", "value": 100, "unit": "%"}, {"measurement": "microsomal CLint", "setting": "[8]", "value": 5.4, "unit": "µL/min/mg"}]}
